Values belong to the compound of their own block, whether it stands above or below them.
What was measured:
MCF7 [1] = experiment: Effect of compound with 10e-8 M estradiol on the growth of MCF-7 cells at a concentration of 10 e-6 M, percentage of control value being 68; format: functional, Homo sapiens
MCF7 [2] = experiment: Effect on the growth of MCF-7 cells at a concentration of 10 e-7 M, percentage of control value being 67; format: functional, Homo sapiens
MCF7 [3] = experiment: Effect of compound on the growth of MCF-7 cells at a concentration of 10 e-6 M, percentage of control value being 35; format: functional, Homo sapiens
MCF7 [4] = experiment: Effect of compound with 10e-8 M estradiol on the growth of MCF-7 cells at a concentration 10 e-7 M, percentage of control value being 90; format: functional, Homo sapiens
MCF7 [5] = experiment: Effect on the growth of MCF-7 cells at a concentration of,10 e-7 M, percentage of control value being 20; format: functional, Homo sapiens
MCF7 [6] = experiment: Effect of compound with 10e-8 M estradiol on the growth of MCF-7 cells at a concentration 10 e-7 M, percentage of control value being 12; format: functional, Homo sapiens
MCF7 [7] = experiment: Effect on the growth of MCF-7 cells at a concentration of,10 e-7 M, percentage of control value being 87; format: functional, Homo sapiens
MCF7 [8] = experiment: Effect of compound on the growth of MCF-7 cells at a concentration of,10 e-6 M, percentage of control value being 85; format: functional, Homo sapiens
MCF7 [9] = experiment: Effect of compound with 10e-8 M estradiol on the growth of MCF-7 cells at a concentration of,10 e-6 M, percentage of control value being 74; format: functional, Homo sapiens
MCF7 [10] = experiment: Effect of compound with 10e-8 M estradiol on the growth of MCF-7 cells at a concentration 10 e-7 M, percentage of control value being 77; format: functional, Homo sapiens
MCF7 [11] = experiment: Effect of compound with 10e-8 M estradiol on the growth of MCF-7 cells at a concentration 10 e-7 M, percentage of control value being 85; format: functional, Homo sapiens
MCF7 [12] = experiment: Effect of compound on the growth of MCF-7 cells at a concentration of 10 e-6 M, percentage of control value being 23; format: functional, Homo sapiens
MCF7 [13] = experiment: Effect on the growth of MCF-7 cells at a concentration of 10 e-7 M, percentage of control value being 36; format: functional, Homo sapiens
MCF7 [14] = experiment: Effect of compound with 10e-8 M estradiol on the growth of MCF-7 cells at a concentration of 10 e-6 M, percentage of control value being 32; format: functional, Homo sapiens
MCF7 [15] = experiment: Effect of compound on the growth of MCF-7 cells at a concentration of 10 e-7 M Experiment 2, percentage of control value being 15; format: functional, Homo sapiens
MCF7 [16] = experiment: Effect of compound on the growth of MCF-7 cells at a concentration of 10 e-6 M Experiment 2, percentage of control value being 13; format: functional, Homo sapiens
MCF7 [17] = experiment: Effect of compound with 10e-8 M estradiol on the growth of MCF-7 cells at a concentration 10 e-7 M, percentage of control value being 13; format: functional, Homo sapiens
MCF7 [18] = experiment: Effect on the growth of MCF-7 cells at a concentration of,10 e-7 M, percentage of control value being 80; format: functional, Homo sapiens
MCF7 [19] = experiment: Effect of compound with 10e-8 M estradiol on the growth of MCF-7 cells at a concentration of,10 e-6 M, percentage of control value being 90; format: functional, Homo sapiens
MCF7 [20] = experiment: Effect of compound on the growth of MCF-7 cells at a concentration of,10 e-6 M, percentage of control value being 63; format: functional, Homo sapiens
MCF7 [21] = experiment: Effect of compound with 10e-8 M estradiol on the growth of MCF-7 cells at a concentration 10 e-7 M, percentage of control value being 91; format: functional, Homo sapiens
MCF7 [22] = experiment: Effect on the growth of MCF-7 cells at a concentration of,10 e-7 M, percentage of control value being 84; format: functional, Homo sapiens
[23] = biological target: Estrogen receptor (Rattus norvegicus) (UniProt P06211+Q62986)
Description: In vitro relative binding affinity for rat uterine estrogen receptor compared to [3H]estradiol

Structure (SMILES): CC/C(=C(/c1ccc(OCCN(C)C)cc1)c1cccc(O)c1)c1ccccc1 [DROLOXIFENE]
- DNA (MCF7 [1]): 11.3 µg
- DNA (MCF7 [2]): 11.2 µg
- DNA (MCF7 [3]): 5.9 µg
- DNA (MCF7 [4]): 15 µg

Structure (SMILES): CC/C(=C(/c1ccc(OCCN(C)C)cc1)c1ccc(O)cc1C)c1ccccc1
- DNA (MCF7 [5]): 1.6 µg
- DNA (MCF7 [6]): 1 µg

Structure (SMILES): CC/C(=C(/c1ccc(OCCN(C)C)cc1)c1ccccc1O)c1ccccc1
- DNA (MCF7 [7]): 14.6 µg
- DNA (MCF7 [8]): 14.2 µg
- DNA (MCF7 [9]): 12.4 µg
- DNA (MCF7 [10]): 12.8 µg

Structure (SMILES): CCC(=C(c1ccc(O)cc1)c1ccc(OCCN(C)C)cc1)c1ccccc1
- DNA (MCF7 [11]): 14.2 µg
- DNA (MCF7 [12]): 3.8 µg
- DNA (MCF7 [13]): 6 µg
- DNA (MCF7 [14]): 5.4 µg
- DNA (MCF7 [15]): 1.2 µg
- DNA (MCF7 [16]): 1.1 µg

Structure (SMILES): CC/C(=C(/c1ccc(OCCN(C)C)cc1)c1ccc(O)cc1O)c1ccccc1
- DNA (MCF7 [17]): 1.1 µg
- DNA (MCF7 [18]): 6.6 µg

Structure (SMILES): CC/C(=C(\c1ccccc1)c1ccc(OCCN(C)C)cc1)c1ccccc1 [TAMOXIFEN]
- DNA (MCF7 [19]): 15.1 µg
- DNA (MCF7 [20]): 10.6 µg
- DNA (MCF7 [21]): 15.2 µg
- DNA (MCF7 [22]): 14 µg

- IC50 [23]: 30 nM
Structure (SMILES): CC/C(=C(\c1ccccc1)c1ccc(OCCN(C)C)cc1)c1cccc(O)c1

— ChEMBL document CHEMBL1122822 (1985)
